Data: patent publication US20260325533A1, “CDK INHIBITOR COMPOUNDS” (ALEKSIA THERAPEUTICS, INC., priority 2023, published 2026)
Read-outs that look alike come from different tables or passages of the source.

How the values were obtained:
Assay type in all cases: biochemical
[1] = molecular target: CDK2/CCNE1 (Homo sapiens, UniProt P24941); assay: CDK2 homogeneous time-resolved fluorescence (HTRF) kinase assay; settings: 3 nM CDK2/CCNE1, 1 mM ATP; read-out: CDK2/CCNE IC50 <25 nM
In short: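 IC50 derived from 11-point, half-log dilutions (usually top 10 μM) of compound, 1% DMSO. Kinase (3 nM CDK2/CCNE1) was preincubated with compound 20 min, then phosphorylated 50 nM ULight-4E-BP1 peptide at 1 mM ATP for 60 min, 23 °C. Europium-antibody TR-FRET read after EDTA stop.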

[2] = molecular target: CDK4/CCND3 (Homo sapiens, UniProt P11802); assay: CDK4 homogeneous time-resolved fluorescence (HTRF) kinase assay; settings: 1.5 nM CDK4/CCND3, 1 mM ATP
CDK4/CCND3, sequence (P11802 whole entry): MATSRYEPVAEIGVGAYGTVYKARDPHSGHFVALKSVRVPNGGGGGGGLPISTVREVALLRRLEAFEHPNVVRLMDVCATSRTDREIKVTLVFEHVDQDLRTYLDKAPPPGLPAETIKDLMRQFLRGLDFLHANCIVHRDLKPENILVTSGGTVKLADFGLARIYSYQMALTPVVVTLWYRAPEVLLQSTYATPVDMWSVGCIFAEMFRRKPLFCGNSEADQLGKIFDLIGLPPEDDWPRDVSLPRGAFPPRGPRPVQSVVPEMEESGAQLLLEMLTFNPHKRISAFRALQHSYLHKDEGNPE
CDK4/CCND3, sequence (P30281 whole entry partner): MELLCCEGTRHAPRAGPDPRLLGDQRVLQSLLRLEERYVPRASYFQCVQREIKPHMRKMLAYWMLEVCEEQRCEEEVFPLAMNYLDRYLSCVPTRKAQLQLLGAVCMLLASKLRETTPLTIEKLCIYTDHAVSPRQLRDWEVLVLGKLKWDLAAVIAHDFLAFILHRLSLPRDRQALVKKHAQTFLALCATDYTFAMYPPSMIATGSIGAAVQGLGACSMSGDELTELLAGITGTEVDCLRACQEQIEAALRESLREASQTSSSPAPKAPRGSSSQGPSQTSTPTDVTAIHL
In short: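 IC50 values were derived from 11-point half-log dilutions, usually starting at 10 μM. Compound was first held for 20 min at 23 °C with 1.5 nM CDK4/CCND3. 1 mM ATP and 50 nM ULight-eIF4E-BP1 (Thr37/46) substrate were then added for 60 min, and the TR-FRET 665 nm signal was measured after EDTA stop and Eu-anti-phospho-4E-BP1 detection.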

[3] = molecular target: CDK1/CCNB1 (Homo sapiens, UniProt P06493); assay: CDK1 homogeneous time-resolved fluorescence (HTRF) kinase assay; settings: 0.5 nM CDK1/CCNB1, 1 mM ATP
CDK1/CCNB1, sequence (P06493 whole entry): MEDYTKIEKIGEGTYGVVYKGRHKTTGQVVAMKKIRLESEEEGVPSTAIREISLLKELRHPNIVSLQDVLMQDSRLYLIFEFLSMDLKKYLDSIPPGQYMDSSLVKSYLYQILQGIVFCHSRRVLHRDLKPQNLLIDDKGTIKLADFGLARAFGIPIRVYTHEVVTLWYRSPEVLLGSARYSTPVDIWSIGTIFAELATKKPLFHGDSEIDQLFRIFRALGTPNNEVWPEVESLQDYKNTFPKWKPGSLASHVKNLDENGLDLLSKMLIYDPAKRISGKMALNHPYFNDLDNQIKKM
CDK1/CCNB1, sequence (P14635 whole entry partner): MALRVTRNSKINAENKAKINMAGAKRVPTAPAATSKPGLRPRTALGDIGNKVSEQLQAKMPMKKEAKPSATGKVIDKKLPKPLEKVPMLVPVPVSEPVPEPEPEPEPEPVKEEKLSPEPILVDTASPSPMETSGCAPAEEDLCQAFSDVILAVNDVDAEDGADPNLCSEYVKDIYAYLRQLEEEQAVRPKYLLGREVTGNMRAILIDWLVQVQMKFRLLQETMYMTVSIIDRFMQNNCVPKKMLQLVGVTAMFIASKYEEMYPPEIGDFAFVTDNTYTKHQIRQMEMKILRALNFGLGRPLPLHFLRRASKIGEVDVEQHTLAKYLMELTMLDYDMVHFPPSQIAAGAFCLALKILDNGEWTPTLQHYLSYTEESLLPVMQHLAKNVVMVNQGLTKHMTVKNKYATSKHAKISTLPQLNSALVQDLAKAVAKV
In short: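 Compounds, titrated 11 points in half-log steps typically from 10 μM, were incubated with enzyme for 20 min before ATP (1 mM) and ULight-labelled eIF4E-binding protein 1 peptide (50 nM) started a 60-min reaction at 23 °C. Phosphopeptide was detected by europium-antibody TR-FRET and IC50 values were derived.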

[4] = molecular target: CDK6/CCND1 (Homo sapiens, UniProt Q00534); assay: CDK6 homogeneous time-resolved fluorescence (HTRF) kinase assay; settings: 1 nM CDK6/CCND1, 1 mM ATP
CDK6/CCND1, sequence (Q00534 whole entry): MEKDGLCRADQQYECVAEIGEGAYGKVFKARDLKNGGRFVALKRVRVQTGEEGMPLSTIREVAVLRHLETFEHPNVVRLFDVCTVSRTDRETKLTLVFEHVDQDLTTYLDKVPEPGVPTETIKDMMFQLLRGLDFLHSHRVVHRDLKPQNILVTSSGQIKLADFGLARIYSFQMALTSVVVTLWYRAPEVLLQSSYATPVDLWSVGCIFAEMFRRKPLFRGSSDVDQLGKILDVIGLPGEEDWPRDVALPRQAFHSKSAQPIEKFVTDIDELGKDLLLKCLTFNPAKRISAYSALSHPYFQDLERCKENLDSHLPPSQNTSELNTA
CDK6/CCND1, sequence (P24385 whole entry partner): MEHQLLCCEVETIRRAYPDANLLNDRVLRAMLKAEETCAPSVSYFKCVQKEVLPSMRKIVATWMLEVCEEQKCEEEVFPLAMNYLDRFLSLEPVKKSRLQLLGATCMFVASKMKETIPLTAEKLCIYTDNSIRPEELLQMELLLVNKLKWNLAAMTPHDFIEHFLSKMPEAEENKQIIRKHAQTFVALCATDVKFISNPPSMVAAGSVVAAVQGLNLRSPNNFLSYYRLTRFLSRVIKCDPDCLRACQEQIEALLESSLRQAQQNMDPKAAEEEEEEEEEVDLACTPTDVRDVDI
In short: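 Recombinant CDK6/CCND1 (1 nM final) was preincubated with compound for 20 min at 23 °C in HEPES buffer with MgCl2, EGTA, DTT and Tween 20. Kinase reaction then ran 60 min at 23 °C with 1 mM ATP and 50 nM ULight-4E-BP1 (Thr37/46) peptide, and was stopped with EDTA.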

[5] = read-out: CDK1/CCNB IC50 25-250 nM
[6] = read-out: CDK6/CCND IC50 <25 nM
[7] = read-out: CDK4/CCND IC50 25-250 nM
[8] = read-out: CDK1/CCNB IC50 >250 nM
[9] = read-out: CDK6/CCND IC50 25-250 nM

Structure (SMILES) | IC50 [1] [nM] | IC50 ([2]; read-out: CDK4/CCND IC50 <25 nM) [nM] | IC50 [3, 5] [nM] | IC50 [4, 6] [nM] | IC50 [2, 7] [nM] | IC50 [3, 8] [nM] | IC50 [4, 9] [nM] | IC50 ([2]; read-out: CDK4/CCND IC50 >250 nM) [nM] | IC50 ([4]; read-out: CDK6/CCND IC50 >250 nM) [nM]
CS(=O)(=O)c1ccc(Nc2ncc3ccc(C#N)c(N4CCC(C#N)CC4)c3n2)cc1 [Example 957, 8-(4-cyanopiperidin-1-yl)-2-((4-(methylsulfonyl)phenyl)amino) quinazoline-7-carbonitrile] | < 25 | < 25 | 25 to 250 | < 25 | – | – | – | – | –
CS(=O)(=O)c1ccc(Nc2ncc3ccnc(N4CCC(C#N)CC4)c3n2)cc1 [Example 958, 1-(2-((4-(methylsulfonyl)phenyl)amino)pyrido [3,4-d]pyrimidin-8-yl)piperidine-4-carbonitrile] | < 25 | – | – | < 25 | 25 to 250 | > 250 | – | – | –
Cc1c(-c2c(C#N)ccc3cnc(Nc4ccc(S(C)(=O)=O)cc4)nc23)ccc2c1cnn2CCO [Example 962, 8-(1-(2-hydroxyethyl)-4-methyl-1H-indazol-5-yl)-2-((4-(methylsulfonyl)phenyl)amino) quinazoline-7-carbonitrile] | < 25 | – | 25 to 250 | – | 25 to 250 | – | 25 to 250 | – | –
Cc1c(-c2nccc3cnc(Nc4ccc(S(C)(=O)=O)cc4)nc23)ccc2c1cnn2CCO [Example 963, 2-(4-methyl-5-(2-((4-(methylsulfonyl)phenyl)amino)pyrido [3,4-d]pyrimidin-8-yl)-1H-indazol-1-yl)ethan-1-ol] | < 25 | – | 25 to 250 | – | 25 to 250 | – | 25 to 250 | – | –
Cc1c(-c2c(C#N)ccc3cnc(Nc4ccc(S(C)(=O)=O)cc4)nc23)ccc2nn(C)cc12 [Example 964, 8-(2,4-dimethyl-2H-indazol-5-yl)-2-((4-(methylsulfonyl)phenyl)amino) quinazoline-7-carbonitrile] | < 25 | – | 25 to 250 | – | 25 to 250 | – | 25 to 250 | – | –
Cc1c(-c2nccc3cnc(Nc4ccc(S(C)(=O)=O)cc4)nc23)ccc2nn(C)cc12 [Example 965, 8-(2,4-dimethyl-2H-indazol-5-yl)-N-(4-(methylsulfonyl)phenyl)pyrido[3,4-d]pyrimidin-2-amine] | < 25 | – | – | – | – | > 250 | – | > 250 | > 250
